In brackets after ≈: the same amount, converted by molar mass. Where two headings read alike, the source gives them in different places. Positions of bridges follow the written chain, without caps; N, C: chain ends. Non-standard residues stand in square brackets, D forms with d. Residues, ends and D or L forms follow the SMILES beside them. Lys(N3) = [N-]=[N+]=NCCCC[C@H](N)C(=O)O; R8 = C=CCCCCCC[C@@](C)(N)C(=O)O; Cba = N[C@@H](CC1CCC1)C(=O)O; S5 = C=CCCC[C@](C)(N)C(=O)O; βAla = NCCC(=O)O
Assays:
[1] = Lactate dehydrogenase (LDH) release assay; type: cell-based
In short: (§1)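 Membrane damage measured as lactate dehydrogenase release (CytoTox-ONE kit) from p53-responsive β-lactamase reporter HCT116 cells plated at 8000 per well. Final DMSO 0.5%; geometric mean reported from a minimum of three biological replicates.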

[2] = system: HCT116 cells; assay: Lactate dehydrogenase (LDH) release assay; type: cell-based
In short: as §1

[3] = Solubility assay (kinetic solubility, PBS pH 7); type: physicochemical; conditions: pH 7, PBS; for solubility kinetic: pH 7, aqueous buffer, kinetic from dmso stock, read-out: Solubility
In short: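 Std: 10 mM stock → 100 µM in ACN/MeOH/DMSO (10:80:10). Sol. [µM] = (sample peak area / std peak area) × std conc.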

[4] = in vitro
In short: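 Azido-peptide permeability was read as loss of NanoBRET signal (donor 450 nm, acceptor 610 nm) after adding NanoBret618-azide at 10 μM final.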

[5] = EPSA; type: physicochemical
[6] = Experimental LogD (partition coefficient); conditions: for logD: not stated, Partition Coeff LogD
[7] = Nanoclick permeability assay EC50
[8] = 0% FBS 4Hr, read-out: LDH: Cytotoxicity assay: EC50
[9] = 10% FBS 16Hr, read-out: LDH: Cytotoxicity assay: EC50

Compound | EC50 ([1]; LDH: Cytotoxicity assay: EC50) [nM] | LDH: Cytotoxicity assay: % Effect [2] [%] | solubility kinetic [3] [µM] | cell entry EC50 [4, 7] [nM] | EPSA ([5]; EPSA) [A^2] | logD [6] | Partition Coeff LogD [6] | Solubility [3] | EPSA [5] | EC50 [1, 8] [nM] | EC50 [1, 9] [nM] | LDH: Cytotoxicity assay: % Effect ([2]; 0% FBS 4Hr) [%] | LDH: Cytotoxicity assay: % Effect ([2]; 10% FBS 16Hr) [%] | cell entry EC50 [4] [nM]
CC(=O)N[C@@H](CCCCN=[N+]=[N-])C(=O)N[C@@H](CCCCN)C(=O)N[C@@H](CC(C)C)C(=O)N[C@H](C(=O)N[C@@H](Cc1ccccc1)C(=O)N[C@]1(C)CCCCCCC=CCCC[C@@](C)(C(=O)N[C@@H](CO)C(=O)N[C@@H](C)C(=O)N[C@@H](C)C(N)=O)NC(=O)[C@H](CC2CCC2)NC(=O)[C@H](CCC(N)=O)NC(=O)[C@H](C)NC(=O)[C@H](Cc2c[nH]c3ccccc23)NC(=O)[C@H](Cc2ccc(O)cc2)NC(=O)[C@H](CCC(=O)O)NC1=O)[C@@H](C)O [MP-025] | > 50000 | 3.386 | 3 (≈ 6.08 µg/mL) | 1170 | 205 | 2.83 |  |  |  |  |  |  |  | 
CC(=O)N[C@@H](CCCCN=[N+]=[N-])C(=O)N[C@@H](CCCCN)C(=O)N[C@@H](CCCCN)C(=O)N[C@@H](CC(C)C)C(=O)N[C@H](C(=O)N[C@@H](Cc1ccccc1)C(=O)N[C@]1(C)CCCCCCC=CCCC[C@@](C)(C(=O)N[C@@H](CO)C(=O)N[C@@H](C)C(=O)N[C@@H](C)C(N)=O)NC(=O)[C@H](CC2CCC2)NC(=O)[C@H](CCC(N)=O)NC(=O)[C@H](C)NC(=O)[C@H](Cc2c[nH]c3ccccc23)NC(=O)[C@H](Cc2ccc(O)cc2)NC(=O)[C@H](CCC(=O)O)NC1=O)[C@@H](C)O [MP-026] | > 50000 | 25.62 | 3 (≈ 6.47 µg/mL) | 1030 | 213 |  | Poorly Behaved |  |  |  |  |  |  | 
CC(=O)N[C@@H](CCC(=O)O)C(=O)N[C@@H](CCCCN=[N+]=[N-])C(=O)NCCCCCC(=O)N[C@H](C(=O)N[C@@H](CO)C(=O)N[C@@H](Cc1ccccc1)C(=O)N[C@]1(C)CCCCCCC=CCCC[C@@](C)(C(N)=O)NC(=O)[C@H](CC(C)C)NC(=O)[C@H](CC(C)C)NC(=O)[C@H](C)NC(=O)[C@H](Cc2c[nH]c3ccccc23)NC(=O)[C@H](Cc2ccc(O)cc2)NC(=O)[C@H](CCC(=O)O)NC1=O)[C@@H](C)O [MP-027] | > 50000 | 2.385 |  | 415 |  |  | Poorly Behaved | Poorly Behaved | Poorly Behaved |  |  |  |  | 
CC(=O)N[C@@H](CCCCN=[N+]=[N-])C(=O)N[C@H](C(=O)N[C@@H](Cc1ccccc1)C(=O)N[C@]1(C)CCCCCCC=CCCC[C@@](C)(C(=O)N[C@@H](C)C(=O)N[C@@H](C)C(=O)N[C@@H](C)C(=O)N[C@@H](C)C(=O)N[C@@H](C)C(=O)N[C@H](C)C(N)=O)NC(=O)[C@H](CC2CCC2)NC(=O)[C@H](CCC(N)=O)NC(=O)[C@H](C)NC(=O)[C@H](Cc2c[nH]c3ccccc23)NC(=O)[C@H](Cc2ccc(O)cc2)NC(=O)[C@H](CCC(=O)O)NC1=O)[C@@H](C)O [MP-062] (Ac-[Lys(N3)]TF[R8]EYWAQ[Cba][S5]AAAAA[dA]-NH2; staple 4-11) |  |  |  |  | 201 |  | Poorly Behaved | Poorly Behaved |  | > 50700 | > 50700 | 5.433 | 10.66 | 2080
CC(=O)N[C@@H](CCCCN=[N+]=[N-])C(=O)NCCC(=O)N[C@@H](CC(C)C)C(=O)N[C@H](C(=O)N[C@@H](CCC(=O)O)C(=O)N[C@]1(C)CCCCCCC=CCCC[C@@](C)(C(=O)N[C@@H](CO)C(=O)N[C@@H](C)C(=O)N[C@@H](C)C(N)=O)NC(=O)[C@H](CC2CCC2)NC(=O)[C@H](CCC(N)=O)NC(=O)[C@H](C)NC(=O)[C@H](Cc2c[nH]c3ccccc23)NC(=O)[C@H](Cc2ccc(O)cc2)NC(=O)[C@H](Cc2ccccc2)NC1=O)[C@@H](C)O [MP-123] (Ac-[Lys(N3)][βAla]LTE[R8]FYWAQ[Cba][S5]SAA-NH2; staple 6-13) | > 50700 |  | 2 (≈ 3.94 µg/mL) | 682 | 197 | 2.66 |  |  |  |  |  |  |  | 
CC(=O)N[C@@H](CCCCN=[N+]=[N-])C(=O)NCCC(=O)N[C@@H](CC(C)C)C(=O)N[C@H](C(=O)N[C@@H](Cc1ccccc1)C(=O)N[C@]1(C)CCCCCCC=CCCC[C@@](C)(C(=O)N[C@@H](CO)C(=O)N[C@@H](C)C(=O)N[C@@H](C)C(N)=O)NC(=O)[C@H](CCC(N)=O)NC(=O)[C@H](Cc2ccc(O)cc2)NC(=O)[C@H](Cc2c[nH]c3ccccc23)NC(=O)[C@H](CC2CCC2)NC(=O)[C@H](CCC(=O)O)NC(=O)[C@H](C)NC1=O)[C@@H](C)O [MP-205] (Ac-[Lys(N3)][βAla]LTF[R8]AE[Cba]WYQ[S5]SAA-NH2; staple 6-13) | > 50700 | -2.394 | 16 (≈ 31.5 µg/mL) | 276 | 198 | 3.02 |  |  |  |  |  |  |  | 
CC(=O)N[C@@H](CCCCN=[N+]=[N-])C(=O)NCCC(=O)N[C@@H](CC(C)C)C(=O)N[C@H](C(=O)N[C@@H](Cc1ccccc1)C(=O)N[C@@]1(C)CCCCCCC=CCCC[C@@](C)(C(=O)N[C@@H](CO)C(=O)N[C@@H](C)C(=O)N[C@@H](C)C(N)=O)NC(=O)[C@H](CC2CCC2)NC(=O)[C@H](CCC(N)=O)N(C)C(=O)[C@H](C)NC(=O)[C@H](Cc2c[nH]c3ccccc23)NC(=O)[C@H](Cc2ccc(O)cc2)NC(=O)[C@H](CCC(=O)O)NC1=O)[C@@H](C)O [MP-297] | > 50700 |  | 108 (≈ 213 µg/mL) | 1530 | 183 | 2.5 |  |  |  |  |  |  |  | 
CC(=O)N[C@@H](CCCCN=[N+]=[N-])C(=O)NCCC(=O)N[C@H](C(=O)N[C@@H](CO)C(=O)N[C@@H](Cc1ccccc1)C(=O)N[C@]1(C)CCCCCCC=CCCC[C@@](C)(C(=O)N[C@@H](CO)C(=O)N[C@@H](C)C(=O)N[C@@H](C)C(N)=O)NC(=O)[C@H](CC(C)C)NC(=O)[C@H](CC(C)C)NC(=O)[C@H](C)NC(=O)[C@H](Cc2c[nH]c3ccccc23)NC(=O)[C@H](Cc2ccc(O)cc2)NC(=O)[C@H](CCC(=O)O)NC1=O)[C@@H](C)O [MP-686] | > 50700 |  | 2 (≈ 3.83 µg/mL) | 38.5 | 193 | 2.7 |  |  |  |  |  |  |  | 
CC(=O)N[C@@H](CCCCN=[N+]=[N-])C(=O)NCCC(=O)N[C@@H](CC(C)C)C(=O)N[C@H](C(=O)N[C@@H](Cc1ccccc1)C(=O)N[C@]1(C)CCCCC#CC#CCCC[C@@](C)(C(=O)N[C@@H](CO)C(=O)N[C@@H](C)C(=O)N[C@@H](C)C(N)=O)NC(=O)[C@H](CC2CCC2)NC(=O)[C@H](CCC(N)=O)NC(=O)[C@H](C)NC(=O)[C@H](Cc2c[nH]c3ccccc23)NC(=O)[C@H](Cc2ccc(O)cc2)NC(=O)[C@H](CCC(=O)O)NC1=O)[C@@H](C)O [MP-806] | > 50700 |  | 34 (≈ 66.8 µg/mL) | 5580 | 203 | 2.44 |  |  |  |  |  |  |  | 
CC(=O)N[C@@H](CS)C(=O)N[C@@H](CCCCN=[N+]=[N-])C(=O)NCCC(=O)N[C@@H](C)C(=O)N[C@H](C(=O)N[C@@H](Cc1ccccc1)C(=O)N[C@]1(C)CCCCCCC=CCCC[C@@](C)(C(=O)N[C@@H](C)C(=O)N[C@@H](C)C(=O)N[C@@H](C)C(N)=O)NC(=O)[C@H](CC2CCC2)NC(=O)[C@H](C)NC(=O)[C@H](C)NC(=O)[C@H](Cc2c[nH]c3ccccc23)NC(=O)[C@H](Cc2ccc(O)cc2)NC(=O)[C@H](C)NC1=O)[C@@H](C)O [MP-987] (Ac-C[Lys(N3)][βAla]ATF[R8]AYWAA[Cba][S5]AAA-NH2; staple 7-14) | > 50000 |  | 12 (≈ 22.8 µg/mL) | 217 | 180 | 1.12 |  |  |  |  |  |  |  | 
CC(=O)N[C@@H](CCCCN=[N+]=[N-])C(=O)NCCC(=O)N[C@@H](CC(C)C)C(=O)N[C@H](C(=O)N[C@@H](Cc1ccccc1)C(=O)N[C@]1(C)CCCCCCC=CCCC[C@@](C)(C(=O)N[C@@H](CCC(=O)O)C(=O)N[C@@H](CCC(=O)O)C(=O)N[C@@H](C)C(=O)N[C@@H](C)C(=O)N[C@@H](C)C(=O)N[C@@H](C)C(N)=O)NC(=O)[C@H](CC2CCC2)NC(=O)[C@H](CCC(N)=O)NC(=O)[C@H](CCC(=O)O)NC(=O)[C@H](Cc2c[nH]c3ccccc23)NC(=O)[C@H](Cc2ccc(O)cc2)NC(=O)[C@H](CCC(=O)O)NC1=O)[C@@H](C)O [MP-3685, AZIDE-ATSP-7041 (A8E, EEAAAA TAIL)] (Ac-[Lys(N3)][βAla]LTF[R8]EYWEQ[Cba][S5]EEAAAA-NH2; staple 6-13) |  |  | 150 (≈ 351 µg/mL) |  | 195 | 1.99 |  |  |  | > 50700 | > 50700 | 10 | -3.573 | 1260
CC(=O)N[C@@H](CCCCN=[N+]=[N-])C(=O)NCCC(=O)N[C@@H](CC(C)C)C(=O)N[C@H](C(=O)N[C@@H](Cc1ccccc1)C(=O)N[C@]1(C)CCCCCCC=CCCC[C@@](C)(C(=O)N[C@@H](CO)C(=O)N[C@@H](C)C(=O)N[C@@H](C)C(N)=O)NC(=O)[C@H](CC2CCC2)NC(=O)[C@H](C)NC(=O)[C@H](CCC(N)=O)NC(=O)[C@H](Cc2c[nH]c3ccccc23)NC(=O)[C@H](Cc2ccc(O)cc2)NC(=O)[C@H](CCC(=O)O)NC1=O)[C@@H](C)O [MP-4203] (Ac-[Lys(N3)][βAla]LTF[R8]EYWQA[Cba][S5]SAA-NH2; staple 6-13) | > 50700 | 15.26 | 179 (≈ 353 µg/mL) | 1200 | 190 | 2.71 |  |  |  |  |  |  |  | 

— PMC10786919, “Design-rules for stapled peptides with in vivo activity and their application to Mdm2/X antagonists” (Nature Communications, 2024)
